Reference: US12552766B2, “Pesticidally active azole amide compounds” (SYNGENTA CROP PROTECTION AG, priority 2019, dated 2026)

Assays:
Type in all cases: in vivo
[1] = test system: Diabrotica Balteata (Corn Root Worm); assay: Example B1: Diabrotica balteata, spray on maize sprouts; conditions: 96 h, application rate of 200 ppm, L2 larvae, 4 days after infestation, read-out: control in at least one of the two categories (mortality or growth inhibition)
Method: Maize sprouts placed onto an agar layer in 24-well microtiter plates were treated with aqueous test solutions prepared from 10′000 ppm DMSO stock solutions by spraying. After drying, the plates were infested with L2 larvae (6 to 10 per well). The samples were assessed for mortality and growth inhibition in comparison to untreated samples 4 days after infestation.

[2] = test system: Spodoptera littoralis (Egyptian Cotton Leaf Worm); assay: Example B9: Spodoptera littoralis, spray on cotton leaf discs; conditions: foliar, 72 h, application rate of 200 ppm, L1 larvae, 3 days after infestation, read-out: control in at least one of the three categories (mortality, anti-feedant effect, or growth inhibition)
Method: Cotton leaf discs were placed onto agar in 24-well microtiter plates and sprayed with aqueous test solutions prepared from 10′000 ppm DMSO stock solutions. After drying the leaf discs were infested with five L1 larvae. The samples were assessed for mortality, anti-feeding effect, and growth inhibition in comparison to untreated samples 3 days after infestation. Control of Spodoptera littoralis by a test sample is given when at least one of the categories mortality, anti-feedant effect, and growth inhibition is higher than the untreated sample.

[3] = test system: Chilo suppressalis (Striped Rice Stemborer); assay: Example B4: Chilo suppressalis, artificial diet; conditions: 144 h, application rate of 200 ppm, L2 larvae, 6 days after infestation, read-out: control in at least one of the three categories (mortality, anti-feedant effect, or growth inhibition)
Method: 24-well microtiter plates with artificial diet were treated with aqueous test solutions prepared from 10′000 ppm DMSO stock solutions by pipetting. After drying, the plates were infested with L2 larvae (6-8 per well). The samples were assessed for mortality, anti-feeding effect, and growth inhibition in comparison to untreated samples 6 days after infestation. Control of Chilo suppressalis by a test sample is given when at least one of the categories mortality, anti-feedant effect, and growth inhibition is higher than the untreated sample.

[4] = test system: Plutella xylostella (Diamondback Moth); assay: Example B13: Plutella xylostella, artificial diet, 96-well; conditions: 216 h, application rate of 500 ppm, eggs/L1 larvae, 9 days after infestation
Method: 96-well microtiter plates containing artificial diet were treated with aqueous test solutions, prepared from 10′000 ppm DMSO stock solutions, by a liquid handling robot. After drying, eggs (˜30 per well) were infested onto a netted lid which was suspended above the diet. The eggs hatch and L1 larvae move down to the diet. The samples were assessed for mortality 9 days after infestation.

[5] = test system: Plutella xylostella (Diamond Back Moth); assay: Example B5: Plutella xylostella, artificial diet, 24-well; conditions: 192 h, application rate of 200 ppm, eggs, 8 days after infestation, read-out: control in at least one of the two categories (mortality or growth inhibition)
Method: 24-well microtiter plates with artificial diet were treated with aqueous test solutions prepared from 10′000 ppm DMSO stock solutions by pipetting. After drying, Plutella eggs were pipetted through a plastic stencil onto a gel blotting paper and the plate was closed with it. The samples were assessed for mortality and growth inhibition in comparison to untreated samples 8 days after infestation.

CC(NC(=O)c1cc(Br)cc(C(F)(F)F)c1)c1nc(Br)nn1-c1ncc(OC(F)F)cn1 (stereo not drawn) [Compound P1, 3-bromo-N-[1-[5-bromo-2-[5-(difluoromethoxy)pyrimidin-2-yl]-1,2,4-triazol-3-yl]ethyl]-5-(trifluoromethyl) benzamide]
≥ 80%: percent control (mortality or growth inhibition) at 200 ppm [1] | percent control (mortality, anti-feedant effect or growth inhibition) at 200 ppm [2] | percent control (mortality, anti-feedant effect or growth inhibition) at 200 ppm [3] | mortality at 500 ppm [4] | percent control (mortality or growth inhibition) at 200 ppm [5]

CC(NC(=O)c1cc(OC(F)F)cc(C(F)(F)F)c1)c1nc(Br)nn1-c1ncc(OC(F)F)cn1 (stereo not drawn) [Compound P3, N-[1-[5-bromo-2-[5-(difluoromethoxy)pyrimidin-2-yl]-1,2,4-triazol-3-yl]ethyl]-3-(difluoromethoxy)-5-(trifluoromethyl) benzamide]
≥ 80%: percent control (mortality or growth inhibition) at 200 ppm [1] | percent control (mortality, anti-feedant effect or growth inhibition) at 200 ppm [2] | percent control (mortality, anti-feedant effect or growth inhibition) at 200 ppm [3] | mortality at 500 ppm [4] | percent control (mortality or growth inhibition) at 200 ppm [5]

CC(NC(=O)c1cc(OCC(F)(F)F)cc(C(F)(F)F)c1)c1nc(Br)nn1-c1ncc(OC(F)F)cn1 (stereo not drawn) [Compound P4, N-[1-[5-bromo-2-[5-(difluoromethoxy)pyrimidin-2-yl]-1,2,4-triazol-3-yl]ethyl]-3-(2,2,2-trifluoroethoxy)-5-(trifluoromethyl) benzamide]
≥ 80%: percent control (mortality or growth inhibition) at 200 ppm [1] | percent control (mortality, anti-feedant effect or growth inhibition) at 200 ppm [2] | percent control (mortality, anti-feedant effect or growth inhibition) at 200 ppm [3] | mortality at 500 ppm [4] | percent control (mortality or growth inhibition) at 200 ppm [5]

CC(NC(=O)c1cc(C(F)F)cc(C(F)(F)F)c1)c1nc(Br)nn1-c1ccc(C#N)cn1 (stereo not drawn) [Compound P8, N-[1-[5-bromo-2-(5-cyano-2-pyridyl)-1,2,4-triazol-3-yl]ethyl]-3-(difluoromethyl)-5-(trifluoromethyl) benzamide]
≥ 80%: percent control (mortality or growth inhibition) at 200 ppm [1] | percent control (mortality, anti-feedant effect or growth inhibition) at 200 ppm [2] | percent control (mortality, anti-feedant effect or growth inhibition) at 200 ppm [3] | mortality at 500 ppm [4] | percent control (mortality or growth inhibition) at 200 ppm [5]

CC(NC(=O)c1cc(Br)cc(C(F)(F)F)c1)c1nc(Br)nn1-c1ccc(OC(F)F)cn1 (stereo not drawn) [Compound P13, 3-bromo-N-[1-[5-bromo-2-[5-(difluoromethoxy)-2-pyridyl]-1,2,4-triazol-3-yl]ethyl]-5-(trifluoromethyl) benzamide]
≥ 80%: percent control (mortality or growth inhibition) at 200 ppm [1] | percent control (mortality, anti-feedant effect or growth inhibition) at 200 ppm [2] | percent control (mortality, anti-feedant effect or growth inhibition) at 200 ppm [3] | mortality at 500 ppm [4] | percent control (mortality or growth inhibition) at 200 ppm [5]

CC(NC(=O)c1cc(C(F)(F)F)cc(C(F)(F)F)c1)c1nc(Br)nn1-c1ccc(OCC(F)F)cn1 (stereo not drawn) [Compound P15, N-[1-[5-bromo-2-[5-(2,2-difluoroethoxy)-2-pyridyl]-1,2,4-triazol-3-yl]ethyl]-3,5-bis(trifluoromethyl) benzamide]
≥ 80%: percent control (mortality or growth inhibition) at 200 ppm [1] | percent control (mortality, anti-feedant effect or growth inhibition) at 200 ppm [2] | percent control (mortality, anti-feedant effect or growth inhibition) at 200 ppm [3] | mortality at 500 ppm [4] | percent control (mortality or growth inhibition) at 200 ppm [5]

CC(NC(=O)c1cc(C(F)(F)F)cc(C(F)(F)F)c1)c1nc(Br)nn1-c1ccc(OCC(F)(F)F)cn1 (stereo not drawn) [Compound P17, N-[1-[5-bromo-2-[5-(2,2,2-trifluoroethoxy)-2-pyridyl]-1,2,4-triazol-3-yl]ethyl]-3,5-bis(trifluoromethyl) benzamide]
≥ 80%: percent control (mortality or growth inhibition) at 200 ppm [1] | percent control (mortality, anti-feedant effect or growth inhibition) at 200 ppm [2] | percent control (mortality, anti-feedant effect or growth inhibition) at 200 ppm [3] | mortality at 500 ppm [4] | percent control (mortality or growth inhibition) at 200 ppm [5]

CC(NC(=O)c1cc(Br)cc(C(F)(F)F)c1)c1nc(Br)nn1-c1ncc(OCC(F)F)cn1 (stereo not drawn) [Compound P18, 3-bromo-N-[1-[5-bromo-2-[5-(2,2-difluoroethoxy)pyrimidin-2-yl]-1,2,4-triazol-3-yl]ethyl]-5-(trifluoromethyl) benzamide]
≥ 80%: percent control (mortality or growth inhibition) at 200 ppm [1] | percent control (mortality, anti-feedant effect or growth inhibition) at 200 ppm [2] | percent control (mortality, anti-feedant effect or growth inhibition) at 200 ppm [3] | mortality at 500 ppm [4] | percent control (mortality or growth inhibition) at 200 ppm [5]

CC(NC(=O)c1cc(OCC(F)(F)F)cc(C(F)(F)F)c1)c1nc(Br)nn1-c1ncc(OCC(F)F)cn1 (stereo not drawn) [Compound P19, N-[1-[5-bromo-2-[5-(2,2-difluoroethoxy)pyrimidin-2-yl]-1,2,4-triazol-3-yl]ethyl]-3-(2,2,2-trifluoroethoxy)-5-(trifluoromethyl) benzamide]
≥ 80%: percent control (mortality or growth inhibition) at 200 ppm [1] | percent control (mortality, anti-feedant effect or growth inhibition) at 200 ppm [2] | percent control (mortality, anti-feedant effect or growth inhibition) at 200 ppm [3] | mortality at 500 ppm [4] | percent control (mortality or growth inhibition) at 200 ppm [5]

CC(NC(=O)c1cc(OCC(F)(F)F)cc(C(F)(F)F)c1)c1nc(Br)nn1-c1ccc(C#N)cn1 (stereo not drawn) [Compound P21, N-[1-[5-bromo-2-(5-cyano-2-pyridyl)-1,2,4-triazol-3-yl]ethyl]-3-(2,2,2-trifluoroethoxy)-5-(trifluoromethyl) benzamide]
≥ 80%: percent control (mortality or growth inhibition) at 200 ppm [1] | percent control (mortality, anti-feedant effect or growth inhibition) at 200 ppm [2] | percent control (mortality, anti-feedant effect or growth inhibition) at 200 ppm [3] | mortality at 500 ppm [4] | percent control (mortality or growth inhibition) at 200 ppm [5]

CC(NC(=O)c1cc(Cl)cc(C(F)(F)F)c1)c1nc(Br)nn1-c1ncc(OCC(F)F)cn1 (stereo not drawn) [Compound P27, N-[1-[5-bromo-2-[5-(2,2-difluoroethoxy)pyrimidin-2-yl]-1,2,4-triazol-3-yl]ethyl]-3-chloro-5-(trifluoromethyl) benzamide]
≥ 80%: percent control (mortality or growth inhibition) at 200 ppm [1] | percent control (mortality, anti-feedant effect or growth inhibition) at 200 ppm [2] | percent control (mortality, anti-feedant effect or growth inhibition) at 200 ppm [3] | mortality at 500 ppm [4] | percent control (mortality or growth inhibition) at 200 ppm [5]

CC(NC(=O)c1cc(C(F)F)cc(C(F)(F)F)c1)c1nc(Br)nn1-c1ncc(OC(F)F)cn1 (stereo not drawn) [Compound P28, N-[1-[5-bromo-2-[5-(difluoromethoxy)pyrimidin-2-yl]-1,2,4-triazol-3-yl]ethyl]-3-(difluoromethyl)-5-(trifluoromethyl) benzamide]
≥ 80%: percent control (mortality or growth inhibition) at 200 ppm [1] | percent control (mortality, anti-feedant effect or growth inhibition) at 200 ppm [2] | percent control (mortality, anti-feedant effect or growth inhibition) at 200 ppm [3] | mortality at 500 ppm [4] | percent control (mortality or growth inhibition) at 200 ppm [5]

CC(NC(=O)c1cc(Cl)cc(C(F)(F)F)c1)c1nc(Br)nn1-c1ncc(OC(F)F)cn1 (stereo not drawn) [Compound P29, N-[1-[5-bromo-2-[5-(difluoromethoxy)pyrimidin-2-yl]-1,2,4-triazol-3-yl]ethyl]-3-chloro-5-(trifluoromethyl) benzamide]
≥ 80%: percent control (mortality or growth inhibition) at 200 ppm [1] | percent control (mortality, anti-feedant effect or growth inhibition) at 200 ppm [2] | percent control (mortality, anti-feedant effect or growth inhibition) at 200 ppm [3] | mortality at 500 ppm [4] | percent control (mortality or growth inhibition) at 200 ppm [5]

CC(NC(=O)c1cc(Br)cc(C(F)(F)F)c1)c1nc(Br)nn1-c1ccc(C#N)cn1 (stereo not drawn) [Compound P30, 3-bromo-N-[1-[5-bromo-2-(5-cyano-2-pyridyl)-1,2,4-triazol-3-yl]ethyl]-5-(trifluoromethyl) benzamide]
≥ 80%: percent control (mortality or growth inhibition) at 200 ppm [1] | percent control (mortality, anti-feedant effect or growth inhibition) at 200 ppm [2] | percent control (mortality, anti-feedant effect or growth inhibition) at 200 ppm [3] | mortality at 500 ppm [4] | percent control (mortality or growth inhibition) at 200 ppm [5]

CC(NC(=O)c1cc(Cl)cc(C(F)(F)F)c1)c1nc(Br)nn1-c1ccc(C#N)cn1 (stereo not drawn) [Compound P31, N-[1-[5-bromo-2-(5-cyano-2-pyridyl)-1,2,4-triazol-3-yl]ethyl]-3-chloro-5-(trifluoromethyl) benzamide]
≥ 80%: percent control (mortality or growth inhibition) at 200 ppm [1] | percent control (mortality, anti-feedant effect or growth inhibition) at 200 ppm [2] | percent control (mortality, anti-feedant effect or growth inhibition) at 200 ppm [3] | mortality at 500 ppm [4] | percent control (mortality or growth inhibition) at 200 ppm [5]
